# Assay results: US10201507B2, “Modulators of intracellular chloride concentration for treating fragile X syndrome” (NEUROCHLORE, priority 2012, dated 2019)
# Tests used:
# [1] = test system: hippocampal CA3 pyramidal neurons; test: DFGABA in offspring at P15 after maternal pretreatment; type: in vivo, mouse
# Protocol: Mice lacking Fmr1 (referred to as Fmr1^−/−) were bred in our animal facility. […] For all experiments, Fmr1^−/− mice were used with wild-type littermates as a control group. The offspring were used for experiments at E18, P0, P2, P4, P7, P9, P15 and P30. Experiments were carried out on offspring of either sex and in a blind manner at E18 and P0. Hippocampal slices (300-500 μm thick) were prepared using a Microm tissue slicer (International GmbH, Germany) as described previously (Tyzio et al., 2006, 2008). Slices were kept in oxygenated (95% O2/5% CO2) artificial cerebrospinal fluid (ACSF) of the following composition (in mM): […] For recordings, slices were placed into a conventional fully submerged chamber superfused with ACSF at a rate of 2-3 ml/min at room temperature. Patch clamp recordings from visually identified CA3 pyramidal cells in cell-attached configuration were performed using EPC-10 amplifier (HEKA Elektronik Dr. Schulze GmbH, Lambrecht/Pfalz, Germany). Patch pipette solution for recordings of single GABAA channels contained (in mM): NaCl 120, KCl 5, TEA-Cl 20, 4-aminopyridine 5, CaCl2 0.1, MgCl2 10, glucose 10, Hepes-NaOH 10 buffered to pH 7.2-7.3 and GABA 2 μM. Analysis of currents through single channels and current-voltage relationships were performed using Clampfit 9.2 (Axon Instruments, Union City, Calif.). […]
# [2] = test system: child with Fragile X syndrome; test: Clinical case study, efficacy scales (ABC, GRAM, CGI); type: in vivo, human; conditions: after 90 days, 0.5 mg twice a day
# Protocol: This example is a case reports presenting the treatment by bumetanide of a child with Fragile X syndrome. Starting from the 5 Jan. 2011, the child received bumetanide twice a day (0.5 mg morning and 0.5 mg evening) during three months. Several biological tests were made at baseline (D0) and then after 7 days (D7), one month (M1), two months (M2) and three months (M3) of treatment. They checked orthostatic hypotension, allergy, cramps, asthenia, diarrhea, myalgia, arthralgia, vertigo and nausea. Blood tests included γ-glutamyltransferase, transaminases, alkaline phosphatases, glycemia, uric acid and creatine, in addition to blood Na^+ and K^+. Efficacy of the treatment was measured at baseline (D0) and after three months of treatment (M3) using the GRAM scale ([…] Regulation Adaptation Modulation) for analyzing the dysregulation of the activity in a child; the ABC scale (Aberrant Behavior Checklist) for assessing problem behaviors of children and adults with mental retardation; and the CGI scale (Clinical Global Impression) for assessing the clinical amelioration in a patient following a therapeutic treatment.
# [3] = test system: child with Fragile X syndrome; test: Clinical case study, side effects, blood tests, blood ions and weight; type: in vivo, human
# Protocol: This example is a case reports presenting the treatment by bumetanide of a child with Fragile X syndrome.
# Starting from the 5 Jan. 2011, the child received bumetanide twice a day (0.5 mg morning and 0.5 mg evening) during three months. Several biological tests were made at baseline (D0) and then after 7 days (D7), one month (M1), two months (M2) and three months (M3) of treatment. They checked orthostatic hypotension, allergy, cramps, asthenia, diarrhea, myalgia, arthralgia, vertigo and nausea. Blood tests included γ-glutamyltransferase, transaminases, alkaline phosphatases, glycemia, uric acid and creatine, in addition to blood Na^+ and K^+.
# hippocampal slices = test: Extracellular field potentials / spike frequency in hippocampal slices at P15 on isoguvacine; type: cell-based, mouse
# Description: Recording were made in the hippocampal slices using tungsten wire electrodes (diameter: 50 μm, California Fine Wire, Grover Beach, Calif.) and a low-noise multichannel DAM-8A amplifiers (WPI, GB; […]; gain: ×1000). The signals were digitized using an analogue-to-digital converter (Digidata 1440A, Axon Instruments, USA). pCLAMP 10.1, Clampfit 10.1 (Axon Instruments, USA), MiniAnalysis 6.03 (Synaptosoft, Decatur, Calif.) and Origin 7.5 (Microcal Software, USA) programs were used for the acquisition and analysis of the synaptic activities. Sampling interval per signal was 100 microseconds (10 kHz).
# To test whether depolarizing actions of GABA were associated with neuronal excitation, the effect of the GABAA receptor agonist isoguvacine was tested. […] To test whether maternal treatment with bumetanide before delivery switches the action of GABA from excitatory to inhibitory in offsprings at P15, pregnant females were treated orally 1 day before delivery with bumetanide (2-2.5 mg/kg in drinking water) and juvenile offspring neurons recorded at P15. […] Therefore, excitatory actions of GABA during delivery produce long term deleterious effects on electrophysiological parameters of FXS juvenile neurons. In FXS mice, GABAergic inputs are excitatory and contribute to hyperexcitability of the network. Bumetanide decreases [Cl^−]i and consequently reduces contribution of excitatory GABAergic inputs in the overall network activity.
smiles,measurement,setting,value
CCCCNc1cc(C(=O)O)cc(S(N)(=O)=O)c1Oc1ccccc1 [bumetanide],average DFGABA,"[1]; P15 FXS mice, maternal pretreatment orally 1 day before delivery, 2-2.5 mg/kg in drinking water",1.0±1.1 mV
same,Effect on DFGABA in offsprings (in words),"[1]; P15 FXS, maternal pretreatment",restored control DFGABA values
same,CGI result,[2],2
same,ABC results (Aberrant Behavior Checklist),[2]; baseline 41,27
same,GRAM results,[2]; baseline 56,31
same,Weight,[3]; 1 month (M1) of treatment,25.1 kg
same,blood K^+,[3]; 1 month (M1) of treatment,4.3 mmol/L
same,blood Na^+,[3]; 1 month (M1) of treatment,139 mmol/L
same,Weight,[3]; 2 months (M2) of treatment,25.4 kg
same,blood K^+,[3]; 2 months (M2) of treatment,3.5 mmol/L
same,blood Na^+,[3]; 2 months (M2) of treatment,140 mmol/L
same,Weight,[3]; 3 months (M3) of treatment,25.7 kg
same,blood K^+,[3]; 3 months (M3) of treatment,3.6 mmol/L
same,blood Na^+,[3]; 3 months (M3) of treatment,139 mmol/L
same,Natremia (in words),[3]; 3 months of treatment,unaltered
same,body weight (in words),[3]; 3 months of treatment,not altered
same,blood K^+ (in words),"[3]; 3 months of treatment, inferior limit 3.5 mmol/1",reduced to a value close to the inferior limit
same,Weight,[3]; 7 days (D7) of treatment,25.2 kg
same,blood K^+,[3]; 7 days (D7) of treatment,3.6 mmol/L
same,blood Na^+,[3]; 7 days (D7) of treatment,143 mmol/L
same,side effect in clinical examination,"[3]; orthostatic hypotension, allergy, cramps, asthenia, diarrhea, myalgia, arthralgia, vertigo, nausea, 3 months",no side effect
same,Conventional blood tests,"[3]; γ-glutamyltransferase, transaminases, alkaline phosphatases, glycemia, uric acid, creatine, 3 months",unaffected
same,normalized spike frequency,"hippocampal slices; FXS mice pretreated with bumetanide, P15, on isoguvacine (10 μM)",80.8±8.2%
same,Effect on excitatory actions of isoguvacine (in words),"hippocampal slices; FXS offspring P15, maternal pretreatment",suppressed the excitatory actions
